Data set [1] addresses T1, Nociceptin receptor (Homo sapiens, UniProt P41146). Briefly: Antagonist activity at human ORL1 receptor expressed in CHO cell membrane by [35S]GTP-gamma-S binding assay. The class given is functional, cell membranes. (Binding of GTPγS marks nucleotide exchange on a G protein.)
The target of data set [2] is T1, Nociceptin receptor. Briefly: Displacement of [125I]Tyr14-NC from human ORL1 receptor expressed in CHO cell membrane. The data set is classed as cell membranes. On the technique in general: In a radioligand displacement assay an active substance lowers the binding of a labelled ligand.
The target in the next data set is Mu-type opioid receptor (Homo sapiens, UniProt P35372). Briefly: Displacement of [3H]diprenorphin from human cloned mu opioid receptor expressed in CHO cell membrane. The class given is cell membranes.
The target of data set [3] is Kappa-type opioid receptor (Homo sapiens, UniProt P41145). As to the kind of experiment: Displacement of [3H]U-69593 from human cloned kappa opioid receptor expressed in CHO cell membrane. The class given is cell membranes.
The target of data set [4] is Delta-type opioid receptor (Homo sapiens, UniProt P41143). As to the kind of experiment: Displacement of [3H]naltrindole from human cloned delta opioid receptor expressed in CHO cell membrane. The class given is cell membranes.
In a further data set the test system is Liver microsomes. Briefly: Metabolic stability in human liver microsomes. The class given is ADME, Microsome. Background: Liver microsomes are a subcellular fraction often used to study metabolism.

Each structure is given as a SMILES string.

A word on the IC50: it is the concentration at which inhibition is half-maximal.

Mu-type opioid receptor, sequence (P35372 whole entry): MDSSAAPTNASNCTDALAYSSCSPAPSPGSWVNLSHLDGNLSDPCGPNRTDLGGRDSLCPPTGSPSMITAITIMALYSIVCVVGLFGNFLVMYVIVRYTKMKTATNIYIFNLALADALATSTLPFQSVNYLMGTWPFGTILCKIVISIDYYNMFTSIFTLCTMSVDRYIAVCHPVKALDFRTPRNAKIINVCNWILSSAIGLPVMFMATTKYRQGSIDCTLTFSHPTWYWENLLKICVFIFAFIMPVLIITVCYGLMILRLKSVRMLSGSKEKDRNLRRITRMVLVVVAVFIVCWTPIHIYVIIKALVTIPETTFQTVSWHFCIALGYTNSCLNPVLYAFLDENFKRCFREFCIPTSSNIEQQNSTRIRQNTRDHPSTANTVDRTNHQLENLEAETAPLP
Kappa-type opioid receptor, sequence (P41145 whole entry): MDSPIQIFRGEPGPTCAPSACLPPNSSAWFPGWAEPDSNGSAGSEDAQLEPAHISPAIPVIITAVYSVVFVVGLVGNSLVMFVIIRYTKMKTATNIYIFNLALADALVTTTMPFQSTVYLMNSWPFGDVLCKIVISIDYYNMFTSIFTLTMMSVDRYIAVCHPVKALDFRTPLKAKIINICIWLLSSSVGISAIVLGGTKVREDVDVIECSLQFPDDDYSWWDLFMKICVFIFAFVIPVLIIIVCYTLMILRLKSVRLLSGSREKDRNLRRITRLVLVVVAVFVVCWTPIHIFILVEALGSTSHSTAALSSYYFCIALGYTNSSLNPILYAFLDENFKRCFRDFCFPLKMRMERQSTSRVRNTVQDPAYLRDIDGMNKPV
T1 sequence (P41146 whole entry): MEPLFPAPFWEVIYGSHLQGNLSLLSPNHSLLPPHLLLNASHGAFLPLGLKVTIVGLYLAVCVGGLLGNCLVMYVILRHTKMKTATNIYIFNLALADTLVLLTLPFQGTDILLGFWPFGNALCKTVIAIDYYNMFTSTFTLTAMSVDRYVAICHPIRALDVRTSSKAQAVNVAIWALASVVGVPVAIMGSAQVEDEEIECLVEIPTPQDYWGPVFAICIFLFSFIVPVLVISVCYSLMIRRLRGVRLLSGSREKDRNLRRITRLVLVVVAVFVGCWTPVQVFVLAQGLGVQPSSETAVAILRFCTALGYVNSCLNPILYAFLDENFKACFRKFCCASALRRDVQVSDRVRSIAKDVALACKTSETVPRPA
Delta-type opioid receptor, sequence (P41143 whole entry): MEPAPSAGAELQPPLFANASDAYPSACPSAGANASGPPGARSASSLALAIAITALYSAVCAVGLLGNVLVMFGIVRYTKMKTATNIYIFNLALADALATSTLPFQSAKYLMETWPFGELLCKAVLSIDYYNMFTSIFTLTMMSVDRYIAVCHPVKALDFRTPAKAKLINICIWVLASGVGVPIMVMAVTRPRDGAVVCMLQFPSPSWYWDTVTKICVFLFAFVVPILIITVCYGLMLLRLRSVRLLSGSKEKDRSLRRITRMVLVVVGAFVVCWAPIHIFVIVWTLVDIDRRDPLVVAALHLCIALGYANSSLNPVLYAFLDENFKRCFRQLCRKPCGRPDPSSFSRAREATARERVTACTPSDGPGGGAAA

With `Cc1ccccc1CSc1nc2cc(F)c(N3CCNCC3)cc2[nH]1`, the IC50 on Nociceptin receptor [1] was found to be 1700 nM; on Nociceptin receptor [2] it was 78 nM.
As to `CCC(CC)Sc1nc2ccc(N3CCNCC3)cc2[nH]1`, the IC50 at Nociceptin receptor [2] worked out at 320 nM.
The same measure, in the same setting: as for `CSc1nc2cc(F)c(N3CCNCC3)cc2[nH]1`, the figure is 2900 nM.
For `Fc1cc2nc(SCC3CCCCC3)[nH]c2cc1N1CCNCC1`, the IC50 turned out to be 930 nM on Nociceptin receptor [1] and 17 nM on Nociceptin receptor [2].
Take `CCC(CC)Sc1nc2cc(C#N)c(N3CCNCC3)cc2[nH]1`: the figures for the IC50 on Nociceptin receptor [1] and at Nociceptin receptor [2] were 78 nM and 15 nM, respectively.
`Cc1ccc(CSc2nc3cc(F)c(N4CCNCC4)cc3[nH]2)cc1` returned an IC50 on Nociceptin receptor [2] of 31 nM.
Consider `Fc1ccc(CSc2nc3cc(F)c(N4CCNCC4)cc3[nH]2)cc1`, for which the IC50 on Nociceptin receptor [2] is 63 nM.
`Fc1ccc(CSc2nc3cc(F)c(N4CCN(Cc5ccccc5)CC4)cc3[nH]2)cc1` returned an IC50 at Nociceptin receptor [2] of 8200 nM.
Take `CCC(C)(CC)Sc1nc2cc(Cl)c(N3CCN(CCO)CC3)cc2[nH]1`: the IC50 at Mu-type opioid receptor was 2800 nM; in data set [3] it was 170 nM; on Nociceptin receptor [1] it was 0.66 nM; in data set [4], more than 1000 nM; at Nociceptin receptor [2], 1.2 nM.
In turn, `Fc1ccc(CSc2nc3cc(F)c(N4CCN(CC5CCCCCCC5)CC4)cc3[nH]2)cc1` showed an IC50 at Nociceptin receptor [2] of more than 10000 nM.
Take `[O-][S+](Cc1cccc(Cl)c1Cl)c1nc2cc(F)c(N3CCNCC3)cc2[nH]1` (centres undefined): at Nociceptin receptor [2], the IC50 stood at 2900 nM.
For the molecule `CCC(CC)Sc1nc2cc(F)c(N3CCNCC3)cc2[nH]1`, the half-inhibitory concentration (IC50) stood at 690 nM on Nociceptin receptor [1] and 4.7 nM at Nociceptin receptor [2].
Taken in the same sequence, the figures for `Fc1cc2nc(SCc3ccccc3Cl)[nH]c2cc1N1CCNCC1` were 380 nM and 23 nM.
As to `CCC(CC)Sc1nc2cc(Cl)c(N3CCN(CC)CC3)cc2[nH]1`, the IC50 at Nociceptin receptor [1] worked out at 3.9 nM; on Nociceptin receptor [2], 10 nM. For the same molecule, the Stability with Liver microsomes was 31%.
In the case of `Fc1cc2nc(SCc3ccccc3)[nH]c2cc1N1CCNCC1`, the IC50 on Nociceptin receptor [2] is 140 nM.
For `CC1(Sc2nc3cc(Cl)c(N4CCN(CCO)CC4)cc3[nH]2)CCCCC1`, the IC50 amounted to 1400 nM at Mu-type opioid receptor, 88 nM in data set [3], 1.8 nM on Nociceptin receptor [1] and 1.8 nM on Nociceptin receptor [2].
As to `CC(C)(C)Sc1nc2cc(Cl)c(N3CCN(CCO)CC3)cc2[nH]1`, the IC50 worked out at 4400 nM on Mu-type opioid receptor, 120 nM in data set [3], 21 nM at Nociceptin receptor [1] and 17 nM at Nociceptin receptor [2].
`CCC(CC)Sc1nc2cc(Cl)c(N3CCN(CCO)CC3)cc2[nH]1`: the IC50 is 3100 nM at Mu-type opioid receptor; 60 nM in data set [3]; 3.3 nM at Nociceptin receptor [1]; more than 1000 nM in data set [4]; 9.7 nM on Nociceptin receptor [2]. The Stability with Liver microsomes was determined as 51%.
`CCC(CC)Sc1nc2cc(C(C)=O)c(N3CCNCC3)cc2[nH]1`: the IC50 at Nociceptin receptor [2] is 3100 nM.
With `CCC(C)(C)Sc1nc2cc(Cl)c(N3CCN(CCO)CC3)cc2[nH]1`, the IC50 at Mu-type opioid receptor was 3500 nM; in data set [3] it was 160 nM; on Nociceptin receptor [1], 2.5 nM; at Nociceptin receptor [2], 5.6 nM.
In the case of `O=S(=O)(Cc1cccc(Cl)c1Cl)c1nc2cc(F)c(N3CCNCC3)cc2[nH]1`, the IC50 at Nociceptin receptor [2] is 240 nM.
As for `Fc1cc2nc(SCc3cccc(Cl)c3Cl)[nH]c2cc1N1CCNCC1`, the IC50 at Nociceptin receptor [1] was 140 nM; at Nociceptin receptor [2], 6 nM.
For `OCCN1CCN(c2cc3[nH]c(SC4CCCCC4)nc3cc2Cl)CC1`, the IC50 on Mu-type opioid receptor turned out to be 520 nM; in data set [3] it was 31 nM; on Nociceptin receptor [1], 20 nM; at Nociceptin receptor [2], 20 nM.
In the case of `CC(C)Sc1nc2cc(Cl)c(N3CCN(CCO)CC3)cc2[nH]1`, the IC50 is 3100 nM at Mu-type opioid receptor, 60 nM in data set [3] and 120 nM at Nociceptin receptor [2].
`CN1CCN(c2cc3[nH]c(SCc4ccc(F)cc4)nc3cc2F)CC1` gave an IC50 on Nociceptin receptor [2] of 910 nM.
Turning to `Fc1cc2nc(SCc3c(Cl)cccc3Cl)[nH]c2cc1N1CCNCC1`, the half-inhibitory concentration (IC50) at Nociceptin receptor [1] came out at 2700 nM; on Nociceptin receptor [2], 55 nM.
As for `Cc1cccc(CSc2nc3cc(F)c(N4CCNCC4)cc3[nH]2)c1`, the IC50 on Nociceptin receptor [2] was determined as 180 nM.

For the origin of these results see ChEMBL document CHEMBL1143092, “Identification of novel benzimidazole series of potent and selective ORL1 antagonists” (Bioorg Med Chem Lett, 2008).
